Assay results published in US9815787B2, “Sulfonamide derivative or pharmaceutically acceptable acid addition salt thereof” (UNIVERSITY OF TSUKUBA, priority 2013, dated 2017).

Biological target: T1, OX2R (Homo sapiens, UniProt O43614)
T1 construct: expressed in transfected cells; host or cells: CHO (Chinese hamster ovary) cells constitutively expressing the OX2R gene and NFAT-luciferase (CHOOX2R)
T1 sequence (O43614 1-444): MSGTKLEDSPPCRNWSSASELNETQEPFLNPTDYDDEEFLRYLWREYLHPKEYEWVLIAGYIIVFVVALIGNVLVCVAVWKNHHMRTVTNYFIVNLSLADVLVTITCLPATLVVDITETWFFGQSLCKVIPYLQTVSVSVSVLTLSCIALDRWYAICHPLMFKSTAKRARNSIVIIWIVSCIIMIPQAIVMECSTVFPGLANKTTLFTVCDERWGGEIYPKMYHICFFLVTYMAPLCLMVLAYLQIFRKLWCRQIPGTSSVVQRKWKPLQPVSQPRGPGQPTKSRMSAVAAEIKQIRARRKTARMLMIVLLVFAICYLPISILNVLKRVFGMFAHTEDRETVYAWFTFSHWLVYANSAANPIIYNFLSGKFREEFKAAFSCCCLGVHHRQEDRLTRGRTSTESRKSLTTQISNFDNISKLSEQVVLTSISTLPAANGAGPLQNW
Experiment: Evaluation of agonist activity against OX2R (CHOOX2R cells, Fura2AM fluorescence, FDSS3000)
Assay type: cell-based
Outline: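 CHO cells stably expressing human OX2R (and NFAT-luciferase), cultured 48 h in 5% FBS DMEM. Agonist response read as change in Fura2AM fluorescence on compound addition in HEPES buffer. Final compound concentrations 0.1, 1.0 or 10 μM; 1% DMSO.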

[1] = test compound 0.1 μM; relative to orexin-A as full agonist (100%); CHOOX2R cells
[2] = test compound 1.0 μM; relative to orexin-A as full agonist (100%); CHOOX2R cells
[3] = test compound 10 μM; relative to orexin-A as full agonist (100%); CHOOX2R cells
[4] = test compound 0.1 μM; CHOOX2R cells; relative to orexin-A as full agonist (100%)
[5] = test compound 1.0 μM; CHOOX2R cells; relative to orexin-A as full agonist (100%)
[6] = test compound 10 μM; CHOOX2R cells; relative to orexin-A as full agonist (100%)
[7] = OX2R agonist activity; CHOOX2R cells
[8] = conversion with orexin-A as full agonist (maximum agonist activity 100%)

Response (0.1 μM (%)) [1]	Response (1.0 μM (%)) [2]	Response (10 μM (%)) [3]	Response (0.1 μM (%)) [4]	Response (1.0 μM (%)) [5]	Response (10 μM (%)) [6]	EC50 [7]	Emax [8]	SMILES
44%	81%	82%	–	–	–	–	–	CCOc1ccc(-c2cccc(C(=O)N(C)C)c2)cc1S(=O)(=O)Nc1cccc(NCCNC(=O)c2ccccc2OC)c1 [Example 108, 4′-ethoxy-3′-(N-(3-((2-(2-methoxybenzamido)ethyl)amino)phenyl)sulfamoyl)-N,N-dimethyl-[1,1′-biphenyl]-3-carboxamide]
78%	84%	79%	–	–	–	–	–	COc1cc(C)c(-c2cccc(C(=O)N(C)C)c2)cc1S(=O)(=O)Nc1cccc(NCCNC(=O)c2sccc2Cl)c1 [Example 105, 3-chloro-N-(2-((3-(3′-(dimethylcarbamoyl)-4-methoxy-6-methyl-[1,1′-biphenyl]-3-ylsulfonamido)phenyl)amino)ethyl)thiophene-2-carboxamide]
–	–	–	<5%	33%	49%	–	–	COc1ccccc1C(=O)NCCNc1cccc(NS(=O)(=O)c2cc(-c3cccc(C(=O)NCC(F)(F)F)c3)ccc2OC)c1 [Example 78, 4′-methoxy-3′-(N-(3-((2-(2-methoxybenzamido)ethyl)amino)phenyl)sulfamoyl)-N-(2,2,2-trifluoroethyl)-[1,1′-biphenyl]-3-carboxamide]
–	–	–	42%	90%	80%	–	–	COc1ccc(-c2cccc(C(=O)N3CCCCC3)c2)cc1S(=O)(=O)Nc1cccc(NCCNC(=O)c2cccnc2OC)c1 [Example 91, 2-methoxy-N-(2-((3-(4-methoxy-3′-(piperidine-1-carbonyl)-[1,1′-biphenyl]-3-ylsulfonamido)phenyl)amino)ethyl)nicotinamide]
–	–	–	67%	123%	111%	–	–	COc1ccc(-c2cccc(C(=O)N(C)C)c2)cc1S(=O)(=O)Nc1cccc(NCCNC(=O)c2ccccc2C(F)(F)F)c1 [Example 69, 4′-methoxy-N,N-dimethyl-3′-(N-(3-((2-(2-(trifluoromethyl)benzamido)ethyl)amino)phenyl)sulfamoyl)-[1,1′-biphenyl]-3-carboxamide]
–	–	–	<5%	130%	119%	–	–	COc1ccc(-c2cccc(C(=O)N(C)C)c2)cc1S(=O)(=O)Nc1cccc(NCCNC(=O)c2cncc(Cl)c2)c1 [Example 58, 5-chloro-N-(2-((3-(3′-(dimethylcarbamoyl)-4-methoxy-[1,1′-biphenyl]-3-ylsulfonamido)phenyl)amino)ethyl)nicotinamide]
–	–	–	<5%	33%	73%	–	–	COc1cccc(C(=O)NCCNc2cccc(NS(=O)(=O)c3cc(-c4ncccc4F)ccc3OC)c2)c1 [Example 93, N-(2-((3-(5-(3-fluoropyridin-2-yl)-2-methoxyphenylsulfonamido)phenyl)amino)ethyl)-3-methoxybenzamide]
<5%	22%	91%	–	–	–	–	–	COc1cccc(C(=O)NCCNc2cccc(NS(=O)(=O)c3cc(-c4cncc(OC)c4)ccc3OC)c2)c1 [Example 98, 3-methoxy-N-(2-((3-(2-methoxy-5-(5-methoxypyridin-3-yl)phenylsulfonamido)phenyl)amino)ethyl)benzamide]
–	–	–	<5%	51%	74%	–	–	COc1ccc(-c2cccc(C(=O)N3CCC3)c2)cc1S(=O)(=O)Nc1cccc(NCCNC(=O)c2ccccc2Cl)c1 [Example 82, N-(2-((3-(3′-(azetidine-1-carbonyl)-4-methoxy-[1,1′-biphenyl]-3-ylsulfonamido)phenyl)amino)ethyl)-2-chlorobenzamide]
<5%	131%	139%	–	–	–	–	–	COc1ccccc1C(=O)NCCN(C)c1cccc(NS(=O)(=O)c2cc(-c3cccc(C(=O)N(C)C)c3)ccc2OC)c1 [Example 112, 4′-methoxy-3′-(N-(3-((2-(2-methoxybenzamido)ethyl) (methyl)amino)phenyl)sulfamoyl)-N,N-dimethyl-[1,1′-biphenyl]-3-carboxamide]
77%	93%	80%	–	–	–	–	–	COc1cc(C)c(-c2cccc(C(=O)N(C)C)c2)cc1S(=O)(=O)Nc1cccc(NCCNC(=O)c2cccnc2OC)c1 [Example 103, N-(2-((3-(3′-(dimethylcarbamoyl)-4-methoxy-6-methyl-[1,1′-biphenyl]-3-ylsulfonamido)phenyl)amino)ethyl)-2-methoxynicotinamide]
–	–	–	42%	86%	74%	–	–	COc1ccc(-c2cccc(C(=O)N(C)C)c2)cc1S(=O)(=O)Nc1cccc(NCCNC(=O)c2occc2C)c1 [Example 68, N-(2-((3-(3′-(dimethylcarbamoyl)-4-methoxy-[1,1′-biphenyl]-3-ylsulfonamido)phenyl)amino)ethyl)-3-methylfuran-2-carboxamide]

Further lines, the compound ahead of its results:

SMILES	Response (0.1 μM (%)) [1]	Response (1.0 μM (%)) [2]	Response (10 μM (%)) [3]	Response (0.1 μM (%)) [4]	Response (1.0 μM (%)) [5]	Response (10 μM (%)) [6]	EC50 [7]	Emax [8]
COc1cccc(C(=O)NCCNc2cccc(NS(=O)(=O)c3cc(-c4c(F)cccc4F)ccc3OC)c2)c1 [Example 18, N-(2-((3-(2′,6′-difluoro-4-methoxy-[1,1′-biphenyl]-3-ylsulfonamide)phenyl)amino)ethyl)-3-methoxybenzamide]	<5%	13%	151%	–	–	–	–	–
COc1cccc(C(=O)NCCNc2cccc(NS(=O)(=O)c3cc(-c4ccccc4OC)ccc3OC)c2)c1 [Example 13, N-(2-((3-(2′,4-dimethoxy-[1,1′-biphenyl]-3-ylsulfonamide)phenyl)amino)ethyl)-3-methoxybenzamide]	<5%	64%	99%	–	–	–	–	–
COc1ccc(-c2cccc(C(=O)N(C)C)c2)cc1S(=O)(=O)Nc1cccc(NCCNC(=O)c2cccc(Cl)n2)c1 [Example 55, 6-chloro-N-(2-((3-(3′-(dimethylcarbamoyl)-4-methoxy-[1,1′-biphenyl]-3-ylsulfonamido)phenyl)amino)ethyl)picolinamide]	–	–	–	23%	144%	122%	–	–
COc1ccc(-c2ccccc2F)cc1S(=O)(=O)Nc1cccc(NCCNC(=O)c2ccccc2Cl)c1 [Example 7, 2-chloro-N-(2-((3-(2′-fluoro-4-methoxy-[1,1′-biphenyl]-3-ylsulfonamide)phenyl)amino)ethyl)benzamide]	10%	62%	145%	–	–	–	–	–
COc1cccc(C(=O)NCCNc2cccc(NS(=O)(=O)c3cc(-c4cc(F)ccc4Cl)ccc3OC)c2)c1 [Example 33, N-(2-((3-(2′-chloro-5′-fluoro-4-methoxy-[1,1′-biphenyl]-3-ylsulfonamide)phenyl)amino)ethyl)-3-methoxybenzamide]	<5%	31%	93%	–	–	–	–	–
COc1ccccc1C(=O)NCCNc1cccc(NS(=O)(=O)c2cc(-c3cccc(N)c3)ccc2OC)c1 [Example 37, N-(2-((3-(3′-amino-4-methoxy-[1,1′-biphenyl]-3-ylsulfonamide)phenyl)amino)ethyl)-2-methoxybenzamide]	–	–	–	16%	102%	163%	–	–
COc1cccc(C(=O)NCCNc2cccc(NS(=O)(=O)c3cc(-c4cccc(OC)c4)ccc3OC)c2)c1 [Example 31, N-(2-((3-(3′,4-dimethoxy-[1,1′-biphenyl]-3-ylsulfonamide)phenyl)amino)ethyl)-3-methoxybenzamide]	6%	67%	103%	–	–	–	–	–
COc1ccc(C(=O)NCCNc2cccc(NS(=O)(=O)c3cc(-c4cccc(C(=O)N(C)C)c4)ccc3OC)c2)cc1 [Example 44, 4′-methoxy-3′-(N-(3-((2-(4-methoxybenzamido)ethyl)amino)phenyl)sulfamoyl)-N,N-dimethyl-[1,1′-biphenyl]-3-carboxamide]	–	–	–	<5%	28%	94%	1050 nM	94%
COc1ccccc1C(=O)NCCNc1cccc(NS(=O)(=O)c2cc(-c3cccc(C(=O)N(C)C)c3)ccc2OC)c1 [Example 40, 4′-methoxy-3′-(N-(3-((2-(2-methoxybenzamido)ethyl)amino)phenyl)sulfamoyl)-N,N-dimethyl-[1,1′-biphenyl]-3-carboxamide]	–	–	–	35%	74%	74%	50 nM	74%
COc1ccc(-c2ccccc2F)cc1S(=O)(=O)Nc1cccc(NCCNC(=O)c2ccncc2)c1 [Example 16, N-(2-((3-(2′-fluoro-4-methoxy-[1,1′-biphenyl]-3-ylsulfonamide)phenyl)amino)ethyl)isonicotinamide]	<5%	<5%	<5%	–	–	–	–	–
